Experimental data: publication PMC10744612, “Genome Mining Reveals a Surprising Number of Sugar Reductases in Aspergillus niger” (Journal of Fungi, 2023)
Like-named read-outs stand apart in the source and are kept apart here.

What was measured:
Experiment in all cases: NADPH oxidation at […] nm, Michaelis-Menten fit
Type in all cases: biochemical, Aspergillus niger
Settings in all cases: 0.2 mM NADPH, HEPES pH 7.0
SrdE = test system: T1, SrdE
T1 construct: cDNA in pET-28a(+), His-tag purified from E. coli

SrdB = test system: T2, SrdB
T2 construct: cDNA in pET-28a(+), His-tag purified from E. coli

XyrB = test system: T3, XyrB
T3 construct: recombinant plasmid from a previous study, His-tag purified from E. coli

| Structure (SMILES) | Km (SrdE; read-out: D-xylose / Km) [mM] | Km (SrdB; read-out: D-xylose / Km) [mM] | Km (XyrB; read-out: D-xylose / Km) [mM] | Km (SrdE; read-out: L-arabinose / Km) [mM] | Km (SrdB; read-out: L-arabinose / Km) [mM] | Km (XyrB; read-out: L-arabinose / Km) [mM] |
| --- | --- | --- | --- | --- | --- | --- |
| OC1OC[C@@H](O)[C@H](O)[C@H]1O (stereo partly drawn) [D-xylose] | 1.1 | 2.8 | 3 |  |  |  |
| OC1OC[C@H](O)[C@H](O)[C@H]1O (stereo partly drawn) [L-arabinose] |  |  |  | 4.3 | 4.5 | 12.3 |
